According to patent publication US9156831B2, “Chemical compounds” (ASTRAZENECA AB, priority 2013, dated 2015):

Tests used:
RERFLCSQ1 = assay: Cell proliferation assay (MTS); format: cell-based, human
Experimental: (§1) The sensitivity of a panel of human cancer cell lines to the effects of compounds was determined in a standard proliferation assay.
(§2) Cells were plated in 96 well plates at densities of 1000-6000 cells per well in RPMI media containing 10% FBS. After incubation at 37° C. for 16 hours, various concentrations of compound were added to the assay plates. After incubation for an additional 72 h, the viable cells were determined by the addition of MTS reagent (Promega #3582) to each well for 2 h. MTS is a tetrazolium salt that is bioreduced by metabolically active cells in the presence of an electron coupling reagent to formazan. The formazan product was then quantitated by absorbance at 490 nm, as an indicator of the relative number of live cells. In order to determine the GI50 (concentration at which growth of cells was inhibited by 50%) the relative number of cells present at the time of drug addition was determined by comparison with the MTS readout before the drug was added, and this value was subtracted from the 72 hr value of untreated cells as a measure of cell growth during the assay.

THP1 = assay: Cell proliferation assay (MTS); format: cell-based, human
Experimental: (§3) The sensitivity of a panel of human cancer cell lines to the effects of compounds was determined in a standard proliferation assay. Cell lines were sourced through the AstraZeneca Cell Bank.
as §2

JURKAT = assay: Cell proliferation assay (MTS); format: cell-based, human
Experimental: as §1
(§4) Cells were plated in 96 well plates at densities of 1000-6000 cells per well in RPMI media containing 10% FBS. After incubation at 37° C. for 16 hours, various concentrations of compound were added to the assay plates. After incubation for an additional 72 h, the viable cells were determined by the addition of MTS reagent (Promega #3582) to each well for 2 h. […] The formazan product was then quantitated by absorbance at 490 nm, as an indicator of the relative number of live cells. In order to determine the GI50 (concentration at which growth of cells was inhibited by 50%) the relative number of cells present at the time of drug addition was determined by comparison with the MTS readout before the drug was added, and this value was subtracted from the 72 hr value of untreated cells as a measure of cell growth during the assay.

U937 = assay: Cell proliferation assay (MTS); format: cell-based, human
Experimental: as §1, §2

HT29 = assay: Cell proliferation assay (MTS); format: cell-based, human
Experimental: as §1, §4

PANC0403 = assay: Cell proliferation assay (MTS); format: cell-based, human
Experimental: as §1, §2

PANC1005 = assay: Cell proliferation assay (MTS); format: cell-based, human
Experimental: as §1, §2

SNU638 = assay: Cell proliferation assay (MTS); format: cell-based, human
Experimental: as §3, §2

REH = assay: Cell proliferation assay (MTS); format: cell-based, human
Experimental: as §1, §4

COLO205 = assay: Cell proliferation assay (MTS); format: cell-based, human
Experimental: as §1, §4

HEL9217 = assay: Cell proliferation assay (MTS); format: cell-based, human
Experimental: as §3, §2

HPAFII = assay: Cell proliferation assay (MTS); format: cell-based, human
Experimental: as §1, §2

MONOMAC6 = assay: Cell proliferation assay (MTS); format: cell-based, human
Experimental: as §1, §2

JEKO1 = assay: Cell proliferation assay (MTS); format: cell-based, human
Experimental: as §3, §2

KU1919 = assay: Cell proliferation assay (MTS); format: cell-based, human
Experimental: as §1, §2

PAMC82 = assay: Cell proliferation assay (MTS); format: cell-based, human
Experimental: as §3, §4

MIAPACA2 = assay: Cell proliferation assay (MTS); format: cell-based, human
Experimental: as §3, §2

977 = assay: Cell proliferation assay (MTS); format: cell-based, human
Experimental: as §1, §2

SW900 = assay: Cell proliferation assay (MTS); format: cell-based, human
Experimental: as §3, §2

OE33 = assay: Cell proliferation assay (MTS); format: cell-based, human
Experimental: as §1, §4

T24 = assay: Cell proliferation assay (MTS); format: cell-based, human
Experimental: as §3, §2

H596 = assay: Cell proliferation assay (MTS); format: cell-based, human
Experimental: as §1, §2

PANC1 = assay: Cell proliferation assay (MTS); format: cell-based, human
Experimental: as §1, §4

HARA = assay: Cell proliferation assay (MTS); format: cell-based, human
Experimental: as §1, §2

SC1 = assay: Cell proliferation assay (MTS); format: cell-based, human
Experimental: as §1, §4

LK2 = assay: Cell proliferation assay (MTS); format: cell-based, human
Experimental: as §3, §2

K562 = assay: Cell proliferation assay (MTS); format: cell-based, human
Experimental: as §1, §2

BT474 xenograft = assay: Tumour growth inhibition, BT474 xenograft model; format: in vivo, mouse
Experimental: BT474 is an estrogen receptor positive breast tumour cell lines with elevated Her2 expression and carries a mutation in the PIK3CA gene (K111N). Female Swiss athymic nude mice (swiss nu/nu-AZUK) were transplanted subcutaneously with human epithelial breast ductal carcinoma cell line BT474c (derived in AZ from BT474-ATCC HTB-20) tumours passaged in mice. Mice were implanted with 0.36 mg 60 day oestrogen pellet (Innovative Research of America) 24 hours prior to cell implantation. 5×10^6 cells in 50% matrigel (BD Bioscience) were injected s.c. on the left flank of the animals.
Animals were randomised into groups of 10-15 when tumours reached a volume of ˜200-300 mm^3 and treatment commenced. Animals were dosed for 3-4 weeks by peroral route, with compound in a suitable vehicle at defined doses and schedules. Tumours were measured two-three times weekly by caliper and volume of tumours calculated using elliptical formula (pi/6×width×width×length).

HCC1954 = assay: Cell proliferation assay (MTS); format: cell-based, human
Experimental: as §1, §2

H23 = assay: Cell proliferation assay (MTS); format: cell-based, human
Experimental: as §3, §2

OCILY19 = assay: Cell proliferation assay (MTS); format: cell-based, human
Experimental: as §1, §2

HCC1937 = assay: Cell proliferation assay (MTS); format: cell-based, human
Experimental: as §1, §2

HCCC9810 = assay: Cell proliferation assay (MTS); format: cell-based, human
Experimental: as §1, §2

H2170 = assay: Cell proliferation assay (MTS); format: cell-based, human
Experimental: as §3, §2

[…] = Cell proliferation assay (MTS); format: cell-based, human
Experimental: as §1, §2

NUGC3 = assay: Cell proliferation assay (MTS); format: cell-based, human
Experimental: as §3, §2

BT20 = assay: Cell proliferation assay (MTS); format: cell-based, human
Experimental: as §3, §2

[1] = Homo sapiens, Blood/lymph, PIK3CA WT

Structure (SMILES): CCn1nc(C2CCN(C(=O)CCO)CC2)nc1-c1cnc(N)c(-c2nnc(C(C)(C)C)o2)n1 [Example 3, 1-(4-(5-(5-amino-6-(5-tert-butyl-1,3,4-oxadiazol-2-yl)pyrazin-2-yl)-1-ethyl-1H-1,2,4-triazol-3-yl)piperidin-1-yl)-3-hydroxypropan-1-one]
- GI50 (RERFLCSQ1; Homo sapiens, RERF-LC-Sq1, Lung, PIK3CA MUT): 0.771 µM
- Category (RERFLCSQ1; RERFLCSQ1): Sensitive (sensitive (GI50<=1.0 μM))
- Category (THP1): Sensitive (sensitive (GI50<=1.0 μM))
- GI50 (THP1; Homo sapiens, THP-1, Blood/lymph, PIK3CA WT): 0.528 µM
- Category (JURKAT): Resistant (resistant (GI50>1.0 μM))
- GI50 (JURKAT; [1]): 8.69 µM
- Category (U937): Resistant (resistant (GI50>1.0 μM))
- GI50 (U937; Homo sapiens, U-937, Blood/lymph, PIK3CA WT): 7.34 µM
- Category (HT29): Resistant (resistant (GI50>1.0 μM))
- GI50 (HT29; Homo sapiens, HT-29, Colon, PIK3CA MUT): 5.48 µM
- Category (PANC0403): Resistant (resistant (GI50>1.0 μM))
- GI50 (PANC0403; Homo sapiens, Panc 04.03, Pancreas, PIK3CA WT): 6.47 µM
- Category (PANC1005): Resistant (resistant (GI50>1.0 μM))
- GI50 (PANC1005; Homo sapiens, Pancreas, PIK3CA WT): 2.61 µM
- Category (SNU638): Resistant (resistant (GI50>1.0 μM))
- GI50 (SNU638; Homo sapiens, SNU-638, Stomach, PIK3CA WT): 8.22 µM
- Category (REH): Resistant (resistant (GI50>1.0 μM))
- GI50 (REH; [1]): 1.05 µM
- Category (COLO205): Resistant (resistant (GI50>1.0 μM))
- GI50 (COLO205; Homo sapiens, COLO 205, Colon, PIK3CA WT): 8.93 µM
- Category (HEL9217): Resistant (resistant (GI50>1.0 μM))
- GI50 (HEL9217; Homo sapiens, HEL 92.1.7, Blood/lymph, PIK3CA INCON): 30 µM
- Category (HPAFII): Resistant (resistant (GI50>1.0 μM))
- GI50 (HPAFII; Homo sapiens, HPAF-II, Pancreas, PIK3CA WT): 2.63 µM
- Category (MONOMAC6): Resistant (resistant (GI50>1.0 μM))
- GI50 (MONOMAC6; Homo sapiens, MONO-MAC-6, Blood/lymph, PIK3CA WT): 2.62 µM
- Category (JEKO1): Sensitive (sensitive (GI50<=1.0 μM))
- GI50 (JEKO1; Homo sapiens, JeKo-1, Blood/lymph, PIK3CA WT): 0.499 µM
- Category (KU1919): Resistant (resistant (GI50>1.0 μM))
- GI50 (KU1919; Homo sapiens, KU-19-19, Bladder, PIK3CA WT): 30 µM
- Category (PAMC82): Resistant (resistant (GI50>1.0 μM))
- GI50 (PAMC82; Homo sapiens, Stomach, PIK3CA WT): 1.37 µM
- Category (MIAPACA2): Resistant (resistant (GI50>1.0 μM))
- GI50 (MIAPACA2; Homo sapiens, MIA PaCa-2, Pancreas, PIK3CA WT): 24.2 µM
- Category 977: Resistant (resistant (GI50>1.0 μM))
- GI50 (977; Homo sapiens, Bladder, PIK3CA WT): 4.42 µM
- Category (SW900): Resistant (resistant (GI50>1.0 μM))
- GI50 (SW900; Homo sapiens, Lung, PIK3CA WT): 30 µM
- Category (OE33): Resistant (resistant (GI50>1.0 μM))
- GI50 (OE33; Homo sapiens, Esophagus, PIK3CA WT): 9.86 µM
- Category (T24): Resistant (resistant (GI50>1.0 μM))
- GI50 (T24; Homo sapiens, T-24, Bladder, PIK3CA WT): 30 µM
- Category (H596): Sensitive (sensitive (GI50<=1.0 μM))
- GI50 (H596; Homo sapiens, NCI-H596, Lung, PIK3CA MUT): 0.302 µM
- Category (PANC1): Resistant (resistant (GI50>1.0 μM))
- GI50 (PANC1; Homo sapiens, PANC-1, Pancreas, PIK3CA WT): 5.34 µM
- Category (HARA): Resistant (resistant (GI50>1.0 μM))
- GI50 (HARA; Homo sapiens, Lung, PIK3CA WT): 1.91 µM
- Category (SC1): Resistant (resistant (GI50>1.0 μM))
- GI50 (SC1; Homo sapiens, SC-1, Blood/lymph, PIK3CA WT): 30 µM
- Category (LK2): Sensitive (sensitive (GI50<=1.0 μM))
- GI50 (LK2; Homo sapiens, LK-2, Lung, PIK3CA WT): 0.588 µM
- Category (K562): Resistant (resistant (GI50>1.0 μM))
- GI50 (K562; [1]): 30 µM
- tumour growth (BT474 xenograft; Example 3 alone 25 mg/kg BID every day, FIG. 11): partially inhibited growth
- tumour growth (BT474 xenograft; Example 3 alone 25 mg/kg BID, 2 days on/5 days off, vs vehicle, FIG. 10): partially inhibited tumour growth
- tumour growth (BT474 xenograft; Example 3 alone 50 mg/kg BID, 2 days on/5 days off, vs vehicle, FIG. 9): partially inhibited tumour growth
- Category (HCC1954): Sensitive (sensitive (GI50<=1.0 μM))
- GI50 (HCC1954; Homo sapiens, Breast, PIK3CA MUT): 0.879 µM
- Category (H23): Resistant (resistant (GI50>1.0 μM))
- GI50 (H23; Homo sapiens, NCI-H23, Lung, PIK3CA WT): 12.3 µM
- Category (OCILY19): Resistant (resistant (GI50>1.0 μM))
- GI50 (OCILY19; Homo sapiens, OCI-LY19, Blood/lymph, PIK3CA WT): 30 µM
- Category (HCC1937): Resistant (resistant (GI50>1.0 μM))
- GI50 (HCC1937; Homo sapiens, Breast, PIK3CA WT): 30 µM
- Category (HCCC9810): Resistant (resistant (GI50>1.0 μM))
- GI50 (HCCC9810; Homo sapiens, Bile duct, PIK3CA WT): 10 µM
- Category (H2170): Resistant (resistant (GI50>1.0 μM))
- GI50 (H2170; Homo sapiens, NCI-H2170, Lung, PIK3CA WT): 7.64 µM
- GI50 ([…]; Homo sapiens): 0.792 µM
- Category ([…]; […]): Sensitive (sensitive (GI50<=1.0 μM))
- Category (NUGC3): Resistant (resistant (GI50>1.0 μM))
- GI50 (NUGC3; Homo sapiens, NUGC-3, Stomach, PIK3CA WT): 24.2 µM
- Category (BT20): Resistant (resistant (GI50>1.0 μM))
- GI50 (BT20; Homo sapiens, BT-20, Breast, PIK3CA MUT): 2.36 µM
